Data published in the supplement of paper PMC9663587.

Legend:
[1] = compound: C=CC(=O)Nc1ccc(C(=O)Nc2[nH]nc3c2CN(C(=O)N[C@H](CN(C)C)c2ccccc2)C3(C)C)cc1 [YKL-5-124]; experiment: increase in dead-cell fraction, 72 h; higher = more death;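 also: breast cancer cell lines in 384-well plates, stained with Hoechst plus LIVE/DEAD far red dye and imaged, cells above an LDR intensity threshold counted dead, Hoechst-negative corpses included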
[2] = compound: CC(=O)c1c(C)c2cnc(Nc3ccc(N4CCN(CCOCCOCCOCCNC(=O)COc5cccc6c5C(=O)N(C5CCC(=O)NC5=O)C6=O)CC4)cn3)nc2n(C2CCCC2)c1=O [BSJ-03-123]; experiment: as above
[3] = compound: CC(=O)c1c(C)c2cnc(Nc3ccc(N4CCNCC4)cn3)nc2n(C2CCCC2)c1=O; experiment: as above
[4] = compound: CCN1CCN(Cc2ccc(Nc3ncc(F)c(-c4cc(F)c5nc(C)n(C(C)C)c5c4)n3)nc2)CC1; experiment: as above
[5] = compound: T1, CCOc1cc2ncc(C#N)c(Nc3ccc(OCc4ccccn4)c(Cl)c3)c2cc1NC(=O)/C=C/CN(C)C [Neratinib/HKI272]; experiment: as above
[6] = compound: CCc1cnn2c(NCc3ccc[n+]([O-])c3)cc(N3CCCC[C@H]3CCO)nc12; experiment: as above
[7] = compound: CN(C)C(=O)c1cc2cnc(Nc3ccc(N4CCNCC4)cn3)nc2n1C1CCCC1 [LEE011/Ribociclib]; experiment: as above
[8] = compound: CN(C)C/C=C/C(=O)Nc1ccc(C(=O)N2CCC[C@@H](Nc3ncc(Cl)c(-c4c[nH]c5ccccc45)n3)C2)cc1 [THZ531]; experiment: as above
[9] = compound: CN(C)C/C=C/C(=O)Nc1ccc(C(=O)Nc2cccc(Nc3ncc(Cl)c(-c4c[nH]c5ccccc45)n3)c2)cc1 [THZ1]; experiment: as above
[10] = compound: T2, CN1CC[C@H](c2c(O)cc(O)c3c(=O)cc(-c4ccccc4Cl)oc23)[C@H](O)C1 [Flavopiridol]; experiment: as above
[11] = compound: T1, Neratinib/HKI272; experiment: GR value, 72 h; higher = faster growth (1 = untreated, <0 = killing);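 also: breast cancer and non-malignant breast epithelial lines, nine half-log doses, viable cells counted by Hoechst and LIVE/DEAD dye imaging versus time-zero plates and DMSO controls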
[12] = compound: T2, Flavopiridol; experiment: as above

In the case of MCF10A, the “increase in dead-cell fraction” value ([1]; 0.001 µM) is reported as 0.0412, the “increase in dead-cell fraction” value ([1]; 0.003162 µM) is reported as 0.118 and the “increase in dead-cell fraction” value ([1]; 0.01 µM) is reported as 0.138. The “increase in dead-cell fraction” value ([1]; 0.03162 µM) was 0.146, the “increase in dead-cell fraction” value ([1]; 0.1 µM) was 0.116 and the “increase in dead-cell fraction” value ([1]; 0.3162 µM) was 0.149. The “increase in dead-cell fraction” value ([1]; 1 µM) was 0.159, the “increase in dead-cell fraction” value ([1]; 3.162 µM) was 0.118 and the “increase in dead-cell fraction” value ([1]; 10 µM) was 0.167. The “increase in dead-cell fraction” value ([2]; 0.001 µM) was 0.0008, the “increase in dead-cell fraction” value ([2]; 0.003162 µM) was -0.0013 and the “increase in dead-cell fraction” value ([2]; 0.01 µM) was -0.0008. For the same cell line, the “increase in dead-cell fraction” value ([2]; 0.03162 µM) was 0.0005, the “increase in dead-cell fraction” value ([2]; 0.1 µM) was 0.0018 and the “increase in dead-cell fraction” value ([2]; 0.3162 µM) was -0.0009. The “increase in dead-cell fraction” value ([2]; 1 µM) was 0.0005, the “increase in dead-cell fraction” value ([2]; 3.162 µM) was 0.0017 and the “increase in dead-cell fraction” value ([2]; 10 µM) was 0.153. For the same cell line, the “increase in dead-cell fraction” value ([3]; 0.0003162 µM) was 0.0006, the “increase in dead-cell fraction” value ([3]; 0.001 µM) was 0.0003 and the “increase in dead-cell fraction” value ([3]; 0.003162 µM) was -0.0024. For the same cell line, the “increase in dead-cell fraction” value ([3]; 0.01 µM) was -0.0041, the “increase in dead-cell fraction” value ([3]; 0.03162 µM) was -0.0059 and the “increase in dead-cell fraction” value ([3]; 0.1 µM) was -0.0084. For the same cell line, the “increase in dead-cell fraction” value ([3]; 0.3162 µM) was -0.0088, the “increase in dead-cell fraction” value ([3]; 1 µM) was -0.0079 and the “increase in dead-cell fraction” value ([3]; 3.162 µM) was -0.005. For the same cell line, the “increase in dead-cell fraction” value ([4]; 0.001 µM) was -0.0006, the “increase in dead-cell fraction” value ([4]; 0.003162 µM) was -0.0032 and the “increase in dead-cell fraction” value ([4]; 0.01 µM) was -0.0061. The “increase in dead-cell fraction” value ([4]; 0.03162 µM) was -0.0084, the “increase in dead-cell fraction” value ([4]; 0.1 µM) was -0.0079 and the “increase in dead-cell fraction” value ([4]; 0.3162 µM) was -0.0081. The “increase in dead-cell fraction” value ([4]; 1 µM) was -0.0035, the “increase in dead-cell fraction” value ([4]; 3.162 µM) was -0.0012 and the “increase in dead-cell fraction” value ([4]; 10 µM) was 0.0346. For the same cell line, the “increase in dead-cell fraction” value ([5]; 0.0003162 µM) was -0.0011, the “increase in dead-cell fraction” value ([5]; 0.001 µM) was -0.0018 and the “increase in dead-cell fraction” value ([5]; 0.003162 µM) was -0.0008. For the same cell line, the “increase in dead-cell fraction” value ([5]; 0.01 µM) was -0.0018, the “increase in dead-cell fraction” value ([5]; 0.03162 µM) was -0.0064 and the “increase in dead-cell fraction” value ([5]; 0.1 µM) was -0.004. The “increase in dead-cell fraction” value ([5]; 0.3162 µM) was 0.003, the “increase in dead-cell fraction” value ([5]; 1 µM) was 0.0444 and the “increase in dead-cell fraction” value ([5]; 3.162 µM) was 0.164. The “increase in dead-cell fraction” value ([6]; 0.0001 µM) was 0.0013, the “increase in dead-cell fraction” value ([6]; 0.0003162 µM) was 0.0005 and the “increase in dead-cell fraction” value ([6]; 0.001 µM) was 0.0001. For the same cell line, the “increase in dead-cell fraction” value ([6]; 0.003162 µM) was 0.0053, the “increase in dead-cell fraction” value ([6]; 0.01 µM) was 0.0077 and the “increase in dead-cell fraction” value ([6]; 0.03162 µM) was 0.5. The “increase in dead-cell fraction” value ([6]; 0.1 µM) was 0.575, the “increase in dead-cell fraction” value ([6]; 0.3162 µM) was 0.559 and the “increase in dead-cell fraction” value ([6]; 1 µM) was 0.523. For the same cell line, the “increase in dead-cell fraction” value ([7]; 0.001 µM) was -0.0014, the “increase in dead-cell fraction” value ([7]; 0.003162 µM) was 0.0018 and the “increase in dead-cell fraction” value ([7]; 0.01 µM) was -0.0007. For the same cell line, the “increase in dead-cell fraction” value ([7]; 0.03162 µM) was -0.0008, the “increase in dead-cell fraction” value ([7]; 0.1 µM) was -0.0006 and the “increase in dead-cell fraction” value ([7]; 0.3162 µM) was 0.0001. For the same cell line, the “increase in dead-cell fraction” value ([7]; 1 µM) was -0.0005, the “increase in dead-cell fraction” value ([7]; 3.162 µM) was -0.0003 and the “increase in dead-cell fraction” value ([7]; 10 µM) was 0.0032. For the same cell line, the “increase in dead-cell fraction” value ([8]; 0.0001 µM) was -0.0006, the “increase in dead-cell fraction” value ([8]; 0.0003162 µM) was -0.0007 and the “increase in dead-cell fraction” value ([8]; 0.001 µM) was 0.0006. The “increase in dead-cell fraction” value ([8]; 0.003162 µM) was -0.0006, the “increase in dead-cell fraction” value ([8]; 0.01 µM) was -0.0015 and the “increase in dead-cell fraction” value ([8]; 0.03162 µM) was 0.0007. The “increase in dead-cell fraction” value ([8]; 0.1 µM) was 0.0013, the “increase in dead-cell fraction” value ([8]; 0.3162 µM) was 0.0057 and the “increase in dead-cell fraction” value ([8]; 1 µM) was 0.795. For the same cell line, the “increase in dead-cell fraction” value ([9]; 0.0001 µM) was -0.0014, the “increase in dead-cell fraction” value ([9]; 0.0003162 µM) was 0.0002 and the “increase in dead-cell fraction” value ([9]; 0.001 µM) was 0.0012. The “increase in dead-cell fraction” value ([9]; 0.003162 µM) was -0.0011, the “increase in dead-cell fraction” value ([9]; 0.01 µM) was -0.0007 and the “increase in dead-cell fraction” value ([9]; 0.03162 µM) was 0.0074. The “increase in dead-cell fraction” value ([9]; 0.1 µM) was 0.0416, the “increase in dead-cell fraction” value ([9]; 0.3162 µM) was 0.0884 and the “increase in dead-cell fraction” value ([9]; 1 µM) was 0.642. The “increase in dead-cell fraction” value ([10]; 0.0001 µM) was 0.0016, the “increase in dead-cell fraction” value ([10]; 0.0003162 µM) was 0 and the “increase in dead-cell fraction” value ([10]; 0.001 µM) was -0.0007. For the same cell line, the “increase in dead-cell fraction” value ([10]; 0.003162 µM) was -0.0005, the “increase in dead-cell fraction” value ([10]; 0.01 µM) was 0 and the “increase in dead-cell fraction” value ([10]; 0.03162 µM) was 0.0039. The “increase in dead-cell fraction” value ([10]; 0.1 µM) was 0.0255, the “increase in dead-cell fraction” value ([10]; 0.3162 µM) was 0.407 and the “increase in dead-cell fraction” value ([10]; 1 µM) was 0.87. It also gave a GR value ([11]; 0.0003162 µM) of 1 GR, a GR value ([11]; 0.001 µM) of 1 GR and a GR value ([11]; 0.003162 µM) of 1 GR. The GR value ([11]; 0.01 µM) was 0.976 GR, the GR value ([11]; 0.03162 µM) was 0.723 GR and the GR value ([11]; 0.1 µM) was 0.496 GR. For the same cell line, the GR value ([11]; 0.3162 µM) was 0.304 GR, the GR value ([11]; 1 µM) was 0.179 GR and the GR value ([11]; 3.162 µM) was 0.099 GR. It also gave a GR value ([12]; 0.0001 µM) of 1.01 GR, a GR value ([12]; 0.0003162 µM) of 1.01 GR and a GR value ([12]; 0.001 µM) of 1.03 GR. For the same cell line, the GR value ([12]; 0.003162 µM) was 1.03 GR, the GR value ([12]; 0.01 µM) was 1.04 GR and the GR value ([12]; 0.03162 µM) was 1.03 GR. The GR value ([12]; 0.1 µM) was 0.822 GR, the GR value ([12]; 0.3162 µM) was -0.322 GR and the GR value ([12]; 1 µM) was -0.67 GR.
